Assay results: ChEMBL document CHEMBL4715861, “Design, synthesis and biological evaluation of new bivalent quinazoline analogues as IAP antagonists” (Bioorg Med Chem Lett, 2021)
pIC50, pKi: −log10 of the molar value. Each block holds one compound with its values, some of them ahead of it. Active and inactive are the calls of the source. No cut-off for these calls is given here.

Assays:
MDA-MB-231 [1] = experiment: Cytotoxicity against human MDA-MB-231 cells; type: functional, cell-based
Cytochrome P450 3A4 = Cytochrome P450 3A4 (Homo sapiens, UniProt P08684); experiment: Inhibition of CYP3A4 (unknown origin); type: ADME
Chain of Cytochrome P450 3A4 (P08684 whole entry): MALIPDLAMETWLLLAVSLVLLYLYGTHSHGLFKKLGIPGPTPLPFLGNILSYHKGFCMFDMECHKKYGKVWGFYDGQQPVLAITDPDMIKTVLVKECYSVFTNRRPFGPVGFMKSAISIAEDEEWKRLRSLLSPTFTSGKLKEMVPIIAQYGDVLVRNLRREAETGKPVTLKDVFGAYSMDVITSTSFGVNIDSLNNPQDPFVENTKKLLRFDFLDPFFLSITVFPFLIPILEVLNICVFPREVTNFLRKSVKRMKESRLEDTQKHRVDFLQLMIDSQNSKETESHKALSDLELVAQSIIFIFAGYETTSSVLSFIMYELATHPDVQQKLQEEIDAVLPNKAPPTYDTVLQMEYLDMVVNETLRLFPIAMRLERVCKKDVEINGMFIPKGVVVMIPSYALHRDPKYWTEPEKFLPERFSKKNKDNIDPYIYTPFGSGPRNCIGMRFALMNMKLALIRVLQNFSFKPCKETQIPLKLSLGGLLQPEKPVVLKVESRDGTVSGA

[2] = Stability in rat microsomes assessed as parent compound remaining at 60 mins; type: ADME, Microsome; settings: read-out: Stabilty
[3] = Stability in human microsomes assessed as parent compound remaining at 60 mins; type: ADME, Microsome; settings: read-out: Stabilty
[4] = Stability in dog microsomes assessed as parent compound remaining at 60 mins; type: ADME, Canis lupus familiaris, Microsome; settings: read-out: Stabilty
[5] = Stability in mouse microsomes assessed as parent compound remaining at 60 mins; type: ADME, Microsome; settings: read-out: Stabilty
Cytochrome P450 2D6 = Cytochrome P450 2D6 (Homo sapiens, UniProt P10635); experiment: Inhibition of CYP2D6 (unknown origin); type: ADME
Chain of Cytochrome P450 2D6 (P10635 whole entry): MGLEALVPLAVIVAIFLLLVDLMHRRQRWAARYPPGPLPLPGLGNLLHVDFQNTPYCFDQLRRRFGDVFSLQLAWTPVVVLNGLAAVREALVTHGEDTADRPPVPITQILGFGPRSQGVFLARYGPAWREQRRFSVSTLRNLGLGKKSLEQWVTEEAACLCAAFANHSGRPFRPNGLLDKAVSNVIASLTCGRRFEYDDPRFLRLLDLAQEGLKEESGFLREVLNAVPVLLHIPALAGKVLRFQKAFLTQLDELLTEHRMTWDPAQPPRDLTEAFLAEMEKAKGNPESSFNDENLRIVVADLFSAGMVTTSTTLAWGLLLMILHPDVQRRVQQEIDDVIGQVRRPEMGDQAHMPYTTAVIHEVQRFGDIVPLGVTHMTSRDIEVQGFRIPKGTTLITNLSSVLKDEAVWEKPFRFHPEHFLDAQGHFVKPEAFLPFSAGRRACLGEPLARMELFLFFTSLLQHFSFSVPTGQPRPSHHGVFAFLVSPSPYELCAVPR

Cytochrome P450 2C9 = Cytochrome P450 2C9 (Homo sapiens, UniProt P11712); experiment: Inhibition of CYP2C9 (unknown origin); type: ADME
Chain of Cytochrome P450 2C9 (P11712 whole entry): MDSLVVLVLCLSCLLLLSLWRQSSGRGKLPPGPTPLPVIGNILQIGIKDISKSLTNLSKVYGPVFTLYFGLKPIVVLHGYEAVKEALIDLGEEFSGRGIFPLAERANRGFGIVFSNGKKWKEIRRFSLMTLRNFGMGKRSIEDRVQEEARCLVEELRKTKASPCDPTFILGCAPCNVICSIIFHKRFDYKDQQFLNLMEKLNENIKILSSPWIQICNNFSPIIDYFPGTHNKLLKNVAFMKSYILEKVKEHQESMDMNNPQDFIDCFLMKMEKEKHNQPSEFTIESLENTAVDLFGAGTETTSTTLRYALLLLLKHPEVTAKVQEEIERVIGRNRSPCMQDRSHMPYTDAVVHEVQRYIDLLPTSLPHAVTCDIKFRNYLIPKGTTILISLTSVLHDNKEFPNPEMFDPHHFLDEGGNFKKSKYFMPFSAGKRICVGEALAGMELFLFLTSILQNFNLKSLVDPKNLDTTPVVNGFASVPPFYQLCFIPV

Cytochrome P450 1A2 = molecular target: T1, Cytochrome P450 1A2 (Homo sapiens, UniProt P05177); experiment: Inhibition of CYP1A2 (unknown origin); type: ADME
T1 sequence (P05177 whole entry): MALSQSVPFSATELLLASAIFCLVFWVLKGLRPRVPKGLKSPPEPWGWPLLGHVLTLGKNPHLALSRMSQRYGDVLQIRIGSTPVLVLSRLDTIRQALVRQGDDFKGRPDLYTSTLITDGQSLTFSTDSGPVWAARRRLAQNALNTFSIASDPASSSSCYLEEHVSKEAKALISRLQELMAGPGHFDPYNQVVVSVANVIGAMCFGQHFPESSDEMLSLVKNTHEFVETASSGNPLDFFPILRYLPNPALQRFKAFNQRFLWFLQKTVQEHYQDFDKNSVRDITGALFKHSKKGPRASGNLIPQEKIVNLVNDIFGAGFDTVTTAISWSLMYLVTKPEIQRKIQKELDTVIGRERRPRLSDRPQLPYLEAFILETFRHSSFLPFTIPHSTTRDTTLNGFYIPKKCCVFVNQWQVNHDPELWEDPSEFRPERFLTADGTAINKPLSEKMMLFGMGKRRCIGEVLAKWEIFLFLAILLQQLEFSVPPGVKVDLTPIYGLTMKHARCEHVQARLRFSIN

Cytochrome P450 2C19 = Cytochrome P450 2C19 (Homo sapiens, UniProt P33261); experiment: Inhibition of CYP2C19 (unknown origin); type: ADME
Chain of Cytochrome P450 2C19 (P33261 whole entry): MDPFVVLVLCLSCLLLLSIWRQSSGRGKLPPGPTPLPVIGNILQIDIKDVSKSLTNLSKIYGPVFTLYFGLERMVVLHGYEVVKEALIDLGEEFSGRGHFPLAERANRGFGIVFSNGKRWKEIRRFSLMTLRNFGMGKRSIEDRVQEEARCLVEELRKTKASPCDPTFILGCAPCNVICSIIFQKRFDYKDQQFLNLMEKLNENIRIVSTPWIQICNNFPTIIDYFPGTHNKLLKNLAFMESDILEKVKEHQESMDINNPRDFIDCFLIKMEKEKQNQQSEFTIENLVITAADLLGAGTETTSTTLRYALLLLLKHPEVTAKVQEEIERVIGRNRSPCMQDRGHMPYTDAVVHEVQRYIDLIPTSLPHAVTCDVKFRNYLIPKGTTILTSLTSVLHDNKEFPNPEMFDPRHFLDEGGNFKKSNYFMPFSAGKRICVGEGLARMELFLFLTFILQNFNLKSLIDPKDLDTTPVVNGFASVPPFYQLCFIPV

MCF7 = experiment: Cytotoxicity against human MCF7 cells; type: functional, cell-based
HS27 = experiment: Cytotoxicity against human HS27 cells; type: cell-based
J82 = experiment: Cytotoxicity against human J82 cells; type: functional, cell-based
[6] = Toxicity in mouse xenografted with human MDA-MB-231 cells assessed as reduction in weight at 3 mg/kg, iv administered for 14 days and measured after 30 days; type: organism-based; settings: in vivo, 336 h, time 14 day
MDA-MB-468 = experiment: Cytotoxicity against human MDA-MB-468 cells; type: functional, cell-based
MDA-MB-231 [7] = experiment: Cytotoxicity against human MDA-MB-231 cells assessed as cell viability at 5 nM (reference value: 98%); type: functional; settings: read-out: Activity
PANC-1 = experiment: Cytotoxicity against human PANC-1 cells; type: functional, cell-based
MDA-MB-231 [8] = experiment: Cytotoxicity against human MDA-MB-231 cells assessed as cell viability at 2 nM (reference value: 98%); type: functional; settings: read-out: Activity
MDA-MB-231 [9] = experiment: Cytotoxicity against human MDA-MB-231 cells assessed as cell viability at 1 nM (reference value: 98%); type: functional; settings: read-out: Activity
[10] = molecular target: T2, E3 ubiquitin-protein ligase XIAP (Homo sapiens, UniProt P98170); experiment: Induction of degradation of XIAP-BIR3 domain in human MDA-MB-231 cells; type: cell-based; settings: dose 1-5 nM
T2 sequence (P98170 whole entry, the tested form may be a part): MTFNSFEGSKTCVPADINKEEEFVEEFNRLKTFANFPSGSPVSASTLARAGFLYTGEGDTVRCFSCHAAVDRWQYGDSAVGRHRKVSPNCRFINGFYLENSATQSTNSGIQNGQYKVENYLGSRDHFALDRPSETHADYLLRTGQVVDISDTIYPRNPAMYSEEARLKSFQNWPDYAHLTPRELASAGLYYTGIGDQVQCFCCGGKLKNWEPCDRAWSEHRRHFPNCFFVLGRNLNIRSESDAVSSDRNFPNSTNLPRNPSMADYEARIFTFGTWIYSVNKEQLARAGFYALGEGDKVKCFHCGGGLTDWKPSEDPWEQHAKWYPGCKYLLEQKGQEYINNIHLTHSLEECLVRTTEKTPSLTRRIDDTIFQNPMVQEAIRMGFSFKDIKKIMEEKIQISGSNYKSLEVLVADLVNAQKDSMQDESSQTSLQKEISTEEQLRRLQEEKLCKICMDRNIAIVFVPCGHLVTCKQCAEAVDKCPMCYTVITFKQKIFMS

MIA PaCa-2 = experiment: Cytotoxicity against human MIA PaCa-2 cells; type: functional, cell-based
[11] = molecular target: T2, E3 ubiquitin-protein ligase XIAP; experiment: Binding affinity to human XIAP-BIR3 (241 to 356 residues)
MDA-MB-231 [12] = experiment: Antitumour activity against in human MDA-MB-231 cells xenografted in mouse assessed as reduction in tumour burdens at 3 mg/kg, iv administered for 14 days and measured after 30 days; type: functional, organism-based; settings: time 14.0 day
[13] = molecular target: T2, E3 ubiquitin-protein ligase XIAP; experiment: Antagonist activity at XIAP in human MDA-MB-231 cells assessed as fold change in Caspase-9 activation at 1 nM; type: cell-based; settings: filed as antagonist
BXPC-3 = experiment: Cytotoxicity against human BxPC3 cells; type: functional, cell-based
[14] = molecular target: T2, E3 ubiquitin-protein ligase XIAP; experiment: Antagonist activity at XIAP in human MDA-MB-231 cells assessed as fold change in Caspase-3 activation at 1 nM; type: cell-based; settings: filed as antagonist
[15] = molecular target: Baculoviral IAP repeat-containing protein 3 (Homo sapiens) (UniProt Q13489); experiment: Induction of degradation of cIAP2-BIR3 domain in human MDA-MB-231 cells; type: cell-based; settings: dose 1-5 nM
Chain of Baculoviral IAP repeat-containing protein 3 (Homo sapiens) (Q13489 whole entry, the tested form may be a part): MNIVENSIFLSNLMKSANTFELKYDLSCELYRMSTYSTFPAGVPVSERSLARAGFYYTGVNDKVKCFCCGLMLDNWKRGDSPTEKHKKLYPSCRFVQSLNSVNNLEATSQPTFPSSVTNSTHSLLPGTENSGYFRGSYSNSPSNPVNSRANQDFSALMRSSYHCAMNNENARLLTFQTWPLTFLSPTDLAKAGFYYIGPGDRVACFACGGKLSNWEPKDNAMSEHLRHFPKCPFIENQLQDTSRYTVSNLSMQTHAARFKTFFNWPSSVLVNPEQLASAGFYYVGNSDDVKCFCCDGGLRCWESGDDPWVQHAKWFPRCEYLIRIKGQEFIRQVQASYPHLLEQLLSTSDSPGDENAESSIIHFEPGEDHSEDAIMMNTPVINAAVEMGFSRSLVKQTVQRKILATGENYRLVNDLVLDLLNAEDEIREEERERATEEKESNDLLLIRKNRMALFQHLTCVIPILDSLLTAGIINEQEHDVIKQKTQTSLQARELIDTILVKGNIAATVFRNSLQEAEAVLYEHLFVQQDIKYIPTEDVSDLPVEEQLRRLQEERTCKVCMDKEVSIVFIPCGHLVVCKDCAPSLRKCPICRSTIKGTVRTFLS

[16] = molecular target: Baculoviral IAP repeat-containing protein 2 (Homo sapiens) (UniProt Q13490); experiment: Induction of degradation of cIAP1-BIR3 domain in human MDA-MB-231 cells; type: cell-based; settings: dose 1-5 nM
Chain of Baculoviral IAP repeat-containing protein 2 (Homo sapiens) (Q13490 whole entry, the tested form may be a part): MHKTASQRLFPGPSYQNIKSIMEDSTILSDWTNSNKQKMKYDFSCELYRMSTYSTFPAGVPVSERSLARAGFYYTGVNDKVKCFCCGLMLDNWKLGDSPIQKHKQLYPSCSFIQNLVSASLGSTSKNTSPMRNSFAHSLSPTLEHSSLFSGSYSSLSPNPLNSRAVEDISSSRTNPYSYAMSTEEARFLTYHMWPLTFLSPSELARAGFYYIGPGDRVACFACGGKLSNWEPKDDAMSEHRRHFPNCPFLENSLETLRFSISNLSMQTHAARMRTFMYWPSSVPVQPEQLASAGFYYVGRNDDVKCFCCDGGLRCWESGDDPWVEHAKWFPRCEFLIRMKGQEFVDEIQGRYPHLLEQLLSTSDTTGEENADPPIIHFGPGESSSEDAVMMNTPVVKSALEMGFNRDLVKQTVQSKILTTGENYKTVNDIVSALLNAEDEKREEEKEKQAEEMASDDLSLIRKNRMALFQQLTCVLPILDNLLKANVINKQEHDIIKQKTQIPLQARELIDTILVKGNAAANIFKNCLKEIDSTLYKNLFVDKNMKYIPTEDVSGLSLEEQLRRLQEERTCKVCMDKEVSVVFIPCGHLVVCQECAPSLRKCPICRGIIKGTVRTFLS

OVCAR-3 = experiment: Cytotoxicity against human OVCAR-3 cells; type: functional, cell-based
[17] = Toxicity in mouse xenografted with human MDA-MB-231 cells assessed as inflammation around injection site at 3 mg/kg, iv after 6 days; type: organism-based; settings: in vivo, 144 h, time 6 day

SMILES: CN[C@@H](C)C(=O)N[C@H](C(=O)N1CCC[C@H]1C(=O)Nc1cc2c(Nc3ccc(OCC#CC#CCOc4ccc(Nc5ncnc6cc(OC)c(NC(=O)[C@@H]7CCCN7C(=O)[C@@H](NC(=O)[C@H](C)NC)C(C)(C)C)cc56)cn4)nc3)ncnc2cc1OC)C(C)(C)C
- pIC50 (MDA-MB-231 [1]): 7.46

SMILES: CN[C@@H](C)C(=O)N[C@H](C(=O)N1CCC[C@H]1C(=O)Nc1cc2c(OCC#CC#CCOc3ncnc4cc(OC)c(NC(=O)[C@@H]5CCCN5C(=O)[C@@H](NC(=O)[C@H](C)NC)C(C)(C)C)cc34)ncnc2cc1OC)C(C)(C)C
- IC50 (Cytochrome P450 2D6): Not Active
- pIC50 (Cytochrome P450 2C9): 4.90
- pIC50 (MDA-MB-231 [1]): 9.70
- pIC50 (Cytochrome P450 1A2): < 4.30
- pIC50 (Cytochrome P450 3A4): 6.62
- pIC50 (Cytochrome P450 2C19): < 4.30

SMILES: CN[C@@H](C)C(=O)N[C@H](C(=O)N1CCC[C@H]1C(=O)Nc1cc2c(N[C@H]3CC[C@H](Nc4ncnc5cc(OC)c(NC(=O)[C@@H]6CCCN6C(=O)[C@@H](NC(=O)[C@H](C)NC)C(C)(C)C)cc45)CC3)ncnc2cc1OC)C(C)(C)C
- pIC50 (Cytochrome P450 2D6; read-out: IC50): < 4.30
- pIC50 (MCF7): 7.72
- pIC50 (Cytochrome P450 2C9): 4.36
- pIC50 (HS27): < 5.00
- pIC50 (MDA-MB-231 [1]): 9.85
- pIC50 (J82): 7.76
- Activity [6]: Non-Toxic
- pIC50 (MDA-MB-468): 7.56
- viability at 0.005 µM (MDA-MB-231 [7]): 30%
- pIC50 (PANC-1): 9.05
- viability at 0.002 µM (MDA-MB-231 [8]): 42%
- viability at 0.001 µM (MDA-MB-231 [9]): 67%
- Activity [10]: Dose-dependent effect
- pIC50 (MIA PaCa-2): 10.00
- pKi [11]: 7.19
- Activity (MDA-MB-231 [12]): Active
- fold change (FC) [13]: 10.7
- remaining at 1 h [2]: 100%
- pIC50 (Cytochrome P450 1A2): < 4.30
- remaining at 1 h [3]: 86%
- pIC50 (BXPC-3): 9.70
- pIC50 (Cytochrome P450 3A4): 5.45
- fold change (FC) [14]: 3.4
- Activity [15]: Dose-dependent effect
- remaining at 1 h [4]: 63%
- remaining at 1 h [5]: 94%
- pIC50 (Cytochrome P450 2C19): 4.45
- Activity [16]: Dose-dependent effect
- pIC50 (OVCAR-3): 9.70

SMILES: CN[C@@H](C)C(=O)N[C@H](C(=O)N1CCC[C@H]1C(=O)Nc1cc2c(N3CCN(c4ncnc5cc(OC)c(NC(=O)[C@@H]6CCCN6C(=O)[C@@H](NC(=O)[C@H](C)NC)C(C)(C)C)cc45)CC3)ncnc2cc1OC)C(C)(C)C
- pIC50 (MDA-MB-231 [1]): 8.64

SMILES: CN[C@@H](C)C(=O)N[C@H](C(=O)N1CCC[C@H]1C(=O)Nc1cc2c(NC[C@H]3CC[C@H](CNc4ncnc5cc(OC)c(NC(=O)[C@@H]6CCCN6C(=O)[C@@H](NC(=O)[C@H](C)NC)C6CCCCC6)cc45)CC3)ncnc2cc1OC)C1CCCCC1
- pIC50 (MDA-MB-231 [1]): 8.99
- pIC50 (Cytochrome P450 3A4): 6.18

SMILES: CN[C@@H](C)C(=O)N[C@H](C(=O)N1CCC[C@H]1C(=O)Nc1cc2c(OCC#CCOc3ncnc4cc(OC)c(NC(=O)[C@@H]5CCCN5C(=O)[C@@H](NC(=O)[C@H](C)NC)C(C)(C)C)cc34)ncnc2cc1OC)C(C)(C)C
- pIC50 (MDA-MB-231 [1]): 9.40
- pIC50 (Cytochrome P450 3A4): 6.07

SMILES: CN[C@@H](C)C(=O)N[C@H](C(=O)N1CCC[C@H]1C(=O)Nc1cc2c(NCc3ccc(CNc4ncnc5cc(OC)c(NC(=O)[C@@H]6CCCN6C(=O)[C@@H](NC(=O)[C@H](C)NC)C(C)(C)C)cc45)cc3)ncnc2cc1OC)C(C)(C)C
- pIC50 (MDA-MB-231 [1]): 8.37

SMILES: CN[C@@H](C)C(=O)N[C@H](C(=O)N1CCC[C@H]1C(=O)N(CCc1ccccc1)C(=O)C(F)(F)F)[C@H](C)OCC#CC#CCO[C@H](C)[C@H](NC(=O)[C@H](C)NC)C(=O)N1CCC[C@H]1C(=O)N(CCc1ccccc1)C(=O)C(F)(F)F
- Activity [17]: Toxic

Now from value to compound, other results behind:

- pIC50 (Cytochrome P450 3A4): 6.34
SMILES: CN[C@@H](C)C(=O)N[C@H](C(=O)N1CCC[C@H]1C(=O)Nc1cc2c(NC[C@H]3CC[C@H](CNc4ncnc5cc(OC)c(NC(=O)[C@@H]6CCCN6C(=O)[C@@H](NC(=O)[C@H](C)NC)C(C)(C)C)cc45)CC3)ncnc2cc1OC)C(C)(C)C
- pIC50 (MDA-MB-231 [1]): 9.51

- remaining at 1 h [2]: 87%
- remaining at 1 h [3]: 64%
- remaining at 1 h [4]: 65%
- remaining at 1 h [5]: 62%
SMILES: CN[C@@H](C)C(=O)N[C@H](C(=O)N1CCC[C@H]1C(=O)Nc1cc2c(NCC#CC#CCNc3ncnc4cc(OC)c(NC(=O)[C@@H]5CCCN5C(=O)[C@@H](NC(=O)[C@H](C)NC)C(C)(C)C)cc34)ncnc2cc1OC)C(C)(C)C
- pIC50 (MDA-MB-231 [1]): 9.52

- pIC50 (Cytochrome P450 3A4): 6.37
SMILES: CN[C@@H](C)C(=O)N[C@H](C(=O)N1CCC[C@H]1C(=O)Nc1cc2c(NCCCCCCCCNc3ncnc4cc(OC)c(NC(=O)[C@@H]5CCCN5C(=O)[C@@H](NC(=O)[C@H](C)NC)C(C)(C)C)cc34)ncnc2cc1OC)C(C)(C)C
- pIC50 (MDA-MB-231 [1]): 9.52

- pIC50 (Cytochrome P450 3A4): > 6.21
SMILES: CN[C@@H](C)C(=O)N[C@H](C(=O)N1CCC[C@H]1C(=O)Nc1cc2c(NC[C@H]3CC[C@@H](CNc4ncnc5cc(OC)c(NC(=O)[C@@H]6CCCN6C(=O)[C@@H](NC(=O)[C@H](C)NC)C(C)(C)C)cc45)CC3)ncnc2cc1OC)C(C)(C)C
- pIC50 (MDA-MB-231 [1]): 9.39

- pIC50 (Cytochrome P450 3A4): 5.26
SMILES: CN[C@@H](C)C(=O)N[C@H](C(=O)N1CCC[C@H]1C(=O)Nc1cc2c(N[C@H]3CC[C@@H](Nc4ncnc5cc(OC)c(NC(=O)[C@@H]6CCCN6C(=O)[C@@H](NC(=O)[C@H](C)NC)C(C)(C)C)cc45)CC3)ncnc2cc1OC)C(C)(C)C
- pIC50 (MDA-MB-231 [1]): 8.23

- pIC50 (Cytochrome P450 3A4): 5.25
SMILES: CN[C@@H](C)C(=O)N[C@H](C(=O)N1CCC[C@H]1C(=O)Nc1cc2c(NCCOCCOCCNc3ncnc4cc(OC)c(NC(=O)[C@@H]5CCCN5C(=O)[C@@H](NC(=O)[C@H](C)NC)C(C)(C)C)cc34)ncnc2cc1OC)C(C)(C)C
- pIC50 (MDA-MB-231 [1]): 8.30
